Experimental data: the supplement of paper PMC10331698
± gives the standard deviation of the averaged measurements.

How the values were obtained:
Assay in all cases: level (log10 ratio to DMSO vehicle control); higher = higher biomarker level / cell amount than vehicle control
[1] = compound: OCC(F)(F)C(F)(F)C(F)(F)C(F)F [1H,1H,5H-Perfluoropentanol] (in DMSO)
Description: (§1)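 BioMAP Diversity Plus panel of 12 human primary cell co-culture systems (3C, 4H, LPS, SAg, BT, BF4T, BE3C, CASM3C, HDF3CGF, KF3CT, MyoF, Mphg). Compounds were added 1 h before stimulation and left for 24 h (MyoF 48 h; BT 72 h for soluble read-outs or 6 d for IgG). Biomarkers were read by ELISA, cytotoxicity by SRB, PBMC viability and proliferation by Alamar Blue. Each well value was divided by the mean of 8 DMSO control wells on the same plate and log10 transformed; duplicate blinded samples were tested at 4 concentrations.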

Perfluorononanoic acid = compound: O=C(O)C(F)(F)C(F)(F)C(F)(F)C(F)(F)C(F)(F)C(F)(F)C(F)(F)C(F)(F)F [Perfluorononanoic acid] (in DMSO)
Description: as §1

Perfluoroundecanoic acid = compound: O=C(O)C(F)(F)C(F)(F)C(F)(F)C(F)(F)C(F)(F)C(F)(F)C(F)(F)C(F)(F)C(F)(F)C(F)(F)F [Perfluoroundecanoic acid] (in DMSO); conditions: 6700 nM
Description: as §1

[2] = compound: OCC(F)(F)OC(F)(F)C(F)(F)OC(F)(F)C(F)(F)OC(F)(F)CO [1H,1H,11H,11H-Perfluorotetraethylene glycol] (in DMSO)
Description: as §1

[3] = compound: O=C(O)CCC(F)(C(F)(F)F)C(F)(F)F [4,4-bis(Trifluoromethyl)-4-fluoropropanoic acid] (in DMSO)
Description: as §1

[4] = compound: O=C(O)C(F)(F)C(F)(F)C(F)(F)OC(F)(F)F [Perfluoro(4-methoxybutanoic) acid] (in DMSO)
Description: as §1

[5] = compound: C[C@@H]1C[C@H]2[C@@H]3CCC4=CC(=O)C=C[C@]4(C)[C@@]3(F)[C@@H](O)C[C@]2(C)[C@@]1(O)C(=O)COP(=O)(O)O [Dexamethasone sodium phosphate] (in DMSO)
Description: as §1

| Test System | level (log10) ([1]; 6700 nM) | level (log10) ([1]; 20000 nM) | level (log10) ([1]; 60000 nM) | level (log10) (Perfluorononanoic acid; 6700 nM) | level (log10) (Perfluorononanoic acid; 20000 nM) | level (log10) (Perfluoroundecanoic acid) | level (log10) ([2]; 6700 nM) | level (log10) ([2]; 20000 nM) | level (log10) ([2]; 60000 nM) | level (log10) ([3]; 6700 nM) | level (log10) ([3]; 20000 nM) | level (log10) ([3]; 60000 nM) | level (log10) ([4]; 6700 nM) | level (log10) ([4]; 20000 nM) | level (log10) ([4]; 60000 nM) | level (log10) ([5]; 1500 nM) | level (log10) ([5]; 4400 nM) | level (log10) ([5]; 13000 nM) | level (log10) ([5]; 40000 nM) |
| --- | --- | --- | --- | --- | --- | --- | --- | --- | --- | --- | --- | --- | --- | --- | --- | --- | --- | --- | --- |
| BF4T:MMP-1 | 0.002 ± 0.018 | 0.0095 ± 0.018 | 0.012 ± 0.033 | -0.012 ± 0.028 | 0.0095 ± 0.016 | -0.0045 ± 0.005 | -0.0025 ± 0.016 | 0.0005 ± 0.018 | 0.0065 ± 0.046 | -0.0025 ± 0.012 | -0.0015 ± 0.00071 | -0.004 ± 0.013 | 0.0065 ± 0.029 | 0.0015 ± 0.032 | 0.0095 ± 0.011 | 0.006 ± 0.0014 | -0.012 ± 0.013 | -0.0215 ± 0.0092 | -0.0125 ± 0.0021 |
| BF4T:MMP-3 | -0.0125 ± 0.0064 | -0.007 ± 0.0099 | 0.002 ± 0.021 | 0.0005 ± 0.035 | 0.015 ± 0.0071 | -0.002 ± 0.038 | 0.0035 ± 0.016 | 0.012 ± 0.0028 | -0.011 ± 0.013 | 0.0295 ± 0.022 | 0.0285 ± 0.00071 | 0.031 ± 0.052 | 0.0015 ± 0.012 | -0.008 ± 0.014 | 0.0155 ± 0.0078 | 0.0565 ± 0.083 | 0.006 ± 0.061 | -0.03 ± 0.05 | 0.0185 ± 0.033 |
| BF4T:MMP-9 | -0.001 ± 0.0085 | 0.0065 ± 0.019 | 0.0035 ± 0.013 | -0.034 ± 0.038 | -0.032 ± 0.0042 | -0.056 ± 0.04 | -0.007 ± 0.013 | -0.004 ± 0.013 | -0.0405 ± 0.033 | 0.0265 ± 0.042 | 0.0145 ± 0.022 | 0.015 ± 0.042 | 0.0095 ± 0.032 | 0.006 ± 0.034 | 0.027 ± 0.028 | 0.051 ± 0.041 | 0.026 ± 0.037 | 0.0035 ± 0.046 | 0.0225 ± 0.063 |
| BF4T:PAI-I | 0.01 ± 0.0085 | 0.0095 ± 0.018 | 0.0215 ± 0.026 | -0.0145 ± 0.03 | -0.007 ± 0.028 | 0.007 ± 0.0085 | -0.0035 ± 0.0092 | -0.0335 ± 0.00071 | -0.069 ± 0.016 | -0.002 ± 0.014 | -0.01 ± 0.013 | 0.008 ± 0.011 | 0.0015 ± 0.011 | -0.008 ± 0.014 | 0.014 ± 0.035 | -0.0005 ± 0.022 | 0.01 ± 0.013 | 0.001 ± 0.018 | 0.0085 ± 0.0021 |
| BF4T:SRB | -0.0055 ± 0.0021 | 0.001 ± 0.0085 | 0.002 ± 0.0014 | -0.002 ± 0.0014 | -0.028 ± 0.0014 | -0.0115 ± 0.0035 | -0.0035 ± 0.0021 | -0.0065 ± 0.0021 | -0.0345 ± 0.033 | 0.0065 ± 0.015 | 0.0015 ± 0.021 | 0.02 ± 0.014 | -0.0105 ± 0.00071 | -0.0135 ± 0.0064 | -0.0105 ± 0.0035 | 0.0155 ± 0.0078 | 0.0005 ± 0.0064 | 0.01 ± 0.013 | 0.0135 ± 0.016 |
| BF4T:tPA | -0.009 ± 0.028 | 0.0335 ± 0.022 | 0.04 ± 0.058 | -0.025 ± 0.027 | -0.0995 ± 0.026 | -0.043 ± 0.037 | -0.036 ± 0.0028 | -0.0685 ± 0.043 | -0.201 ± 0.035 | -0.0185 ± 0.035 | -0.019 ± 0.013 | -0.0035 ± 0.023 | -0.003 | 0.0005 ± 0.0064 | 0.0105 ± 0.022 | 0.0375 ± 0.05 | 0.01 ± 0.034 | 0.0145 ± 0.016 | 0.027 ± 0.021 |
| BF4T:uPA | -0.0215 ± 0.032 | 0.023 ± 0.016 | 0.013 ± 0.02 | -0.01 ± 0.054 | 0.0335 ± 0.032 | 0.0275 ± 0.0064 | -0.0125 ± 0.018 | -0.0155 ± 0.013 | -0.0215 ± 0.0064 | -0.0015 ± 0.011 | -0.0065 ± 0.016 | -0.001 ± 0.0042 | -0.009 ± 0.0085 | -0.012 | 0.0045 ± 0.005 | 0.006 ± 0.025 | -0.013 ± 0.045 | -0.002 ± 0.013 | -0.002 ± 0.0028 |
| BT:B cell Proliferation | -0.016 ± 0.0042 | 0.0015 ± 0.046 | 0.0065 ± 0.057 | 0.0085 ± 0.0092 | 0.0365 ± 0.022 | -0.0035 ± 0.025 | 0.0215 ± 0.0021 | -0.0175 ± 0.021 | -0.051 ± 0.011 | 0.0195 ± 0.0035 | -0.0115 ± 0.035 | 0.0125 ± 0.0035 | -0.009 ± 0.034 | -0.0165 ± 0.013 | -0.006 ± 0.0099 | -0.0145 ± 0.011 | 0.005 ± 0.013 | -0.0245 ± 0.019 | -0.0025 ± 0.015 |
| BT:PBMC Cytotoxicity | -0.0275 ± 0.013 | -0.038 ± 0.045 | -0.019 ± 0.042 | -0.0065 ± 0.036 | 0.0515 ± 0.015 | 0.0085 ± 0.029 | 0.019 ± 0.0042 | -0.018 ± 0.03 | -0.0425 ± 0.028 | 0.0145 ± 0.019 | -0.0095 ± 0.023 | -0.002 ± 0.057 | 0.0095 ± 0.0078 | -0.0025 ± 0.0064 | 0.0225 ± 0.021 | -0.0915 ± 0.00071 | -0.102 ± 0.028 | -0.107 ± 0.0064 | -0.0975 ± 0.039 |
| BT:Secreted IgG | 0.044 ± 0.02 | 0.0295 ± 0.039 | 0.0475 ± 0.028 | 0.0275 ± 0.021 | 0.0335 ± 0.026 | 0.003 ± 0.011 | -0.093 ± 0.0099 | -0.135 ± 0.0071 | -0.374 ± 0.055 | 0.019 ± 0.017 | -0.053 ± 0.062 | 0.0025 ± 0.005 | -0.0045 ± 0.03 | 0.026 ± 0.047 | -0.0125 ± 0.0064 | 0.024 ± 0.0085 | 0.002 | 0.034 ± 0.011 | 0.0025 ± 0.036 |
| BT:sIL-2 | -0.0095 ± 0.066 | -0.0245 ± 0.0078 | 0.0145 ± 0.059 | 0.0075 ± 0.039 | 0.0105 ± 0.011 | 0.03 ± 0.033 | 0.0295 ± 0.12 | 0.0865 ± 0.1 | 0.005 ± 0.13 | -0.0855 ± 0.13 | 0.02 ± 0.12 | 0.005 ± 0.2 | -0.013 ± 0.0028 | -0.006 ± 0.052 | 0.029 ± 0.051 | -0.442 ± 0.033 | -0.451 ± 0.12 | -0.458 ± 0.039 | -0.456 ± 0.032 |
| BT:sIL-6 | 0.0265 ± 0.005 | 0.0175 ± 0.015 | 0.003 ± 0.014 | 0.0215 ± 0.016 | 0.0145 ± 0.0092 | 0.0325 ± 0.019 | -0.025 ± 0.014 | -0.101 ± 0.048 | -0.302 ± 0.017 | 0 ± 0.12 | -0.0215 ± 0.069 | -0.0665 ± 0.046 | 0.042 ± 0.089 | 0.0225 ± 0.071 | -0.061 ± 0.038 | -0.2605 ± 0.0021 | -0.281 ± 0.07 | -0.3065 ± 0.0021 | -0.33 ± 0.061 |
| BT:sIL-17A | -0.0225 ± 0.086 | 0.044 | -0.0225 ± 0.25 | -0.05 ± 0.0085 | 0.0015 ± 0.022 | -0.06 ± 0.25 | -0.075 ± 0.069 | -0.105 ± 0.032 | -0.337 ± 0.18 | -0.037 ± 0.064 | 0.087 ± 0.054 | -0.019 ± 0.19 | -0.082 ± 0.0028 | -0.0755 ± 0.083 | 0.0425 ± 0.16 | -0.776 ± 0.019 | -0.55 ± 0.03 | -0.652 ± 0.057 | -0.717 ± 0.042 |
| BT:sIL-17F | -0.0035 ± 0.067 | -0.051 ± 0.035 | -0.013 ± 0.25 | -0.0305 ± 0.0064 | 0.002 ± 0.15 | -0.0225 ± 0.056 | -0.0185 ± 0.015 | -0.176 | -0.396 ± 0.044 | 0.064 ± 0.13 | 0.0385 ± 0.087 | -0.005 ± 0.0085 | -0.0085 ± 0.059 | 0.07 ± 0.017 | -0.037 ± 0.073 | -0.259 ± 0.0099 | -0.251 ± 0.058 | -0.262 ± 0.012 | -0.239 ± 0.047 |
| BT:sTNF-alpha | -0.0315 ± 0.0092 | -0.051 ± 0.016 | -0.003 ± 0.068 | -0.002 ± 0.038 | 0.0115 ± 0.073 | 0.06 ± 0.02 | 0.0045 ± 0.066 | -0.033 ± 0.09 | -0.234 ± 0.044 | -0.0135 ± 0.22 | -0.051 ± 0.12 | -0.031 ± 0.16 | -0.028 ± 0.0042 | -0.0245 ± 0.046 | 0.0445 ± 0.016 | -0.575 ± 0.0078 | -0.553 ± 0.0099 | -0.525 ± 0.13 | -0.566 ± 0.13 |
